Measured values reported in patent US20200071380A1, “COMBINATION THERAPIES COMPRISING SIRP ALPHA-BASED CHIMERIC PROTEINS” (Shattuck Labs, Inc., priority 2018, published 2020).

What was measured:
RAW264.7-ISG cells = assay: RAW264.7-ISG interferon reporter cells co-cultured with A20 lymphoma cells; assay type: cell-based, murine; settings: co-culture with A20 lymphoma cells, 24 hours
Experimental: FIG. 8D: Macrophage:Toledo lymphoma co-cultures were harvested 2 hours into phagocytosis assays in the presence of rituximab ([…]), SIRPα-Fc-CD40L ([…]), or the combination of both agents. Macrophages were isolated by CD11b+FACS, RNA was prepared, cDNA synthesized, and gene expression (IFNa1, IFNb1, CD80, and CD86) assessed by qRT-PCR. Fold change was calculated using DDCT and values obtained from the housekeeping gene ACTB, and the corresponding values from untreated samples. […] After 2 hours, co-cultures were isolated from tissue culture vessels and were stained with a fluorescently conjugated CD11b antibody to discriminate macrophages. Cells were then assessed by flow cytometry for the co-localization of fluorescent signal from both cells types. […] After 24-hours type I interferon induced luminescence was assessed using a luminometer. The maximum luminescence (RLU) from each experiment was set to 1, and all other samples were normalized accordingly. […]
Additionally, a macrophage reporter system was used to detect activation. […] After 24 hours, culture supernatant was collected and assessed for luciferase activity, which would indicate activation of a type I interferon response in the RAW-ISG reporter cells. […]

[1] = system: low EGFR-expressing Chronic myeloid leukemia (CML) cell line (K562); assay: Macrophage engulfment of K562 cells; assay type: cell-based, human; settings: K562, negative control cell line
parental CHOK1 cells = assay: Flow cytometry binding to parental CHOK1 cells
From the text: Scale is shown and yellow arrows correspond with each identified monomer. A schematic of the hexamer species is shown to the right, depicting dimerization of the Fc domain and trimerization of the CD40L domain. […] Recombinant hSIRPα-Fc, hCD40L-Fc, and hIgG1 were used as positive controls. […] In both panels, the CHOK1 Parental is on the left and the CHOK1/hCD47 is on the right. […] For both graphs, the CHOK1 Parental is on the bottom. […] In this figure, the control is the top curve, the SIRPα-Fc-CD40L is the middle curve, and the anti-CD47 is the bottom curve.
The extracellular domain (ECD) of SIRPα and the ECD of CD40L were fused via an antibody Fc domain to generate SIRPαECD-Fc-CD40LECD chimeric proteins. When human proteins were used, the chimeric protein is referred to as hSIRPα-Fc-CD40L; when murine proteins were used, the chimeric protein is referred to as and mSIRPα-Fc-CD40L. […] The purified protein was then analyzed for the presence of each individual domain by Western blotting using anti-SIRPα, anti-Fc, and anti-CD40L antibodies (FIG. 3A, bottom). […] Next, binding affinities for SIRPα-Fc-CD40L to recombinant CD47, CD40, or Fc receptors were evaluated by surface plasmon resonance (SPR). […] A functional ELISA evaluated whether SIRPα-Fc-CD40L could outcompete a commercially available single-sided SIRPα-Fc control for binding to recombinant CD47 (FIG. 3H).

[2] = system: cynomolgus macaque erythrocytes; assay: In vitro hemolysis assay, cynomolgus macaque erythrocytes; assay type: cell-based
From the text: (§1) However, the in vitro systems used to test this question have significant limitations, including a complete lack of macrophages in the test system.

[3] = system: A431, HCC827, K562, HCC1954 and MCF7 cells; assay: Macrophage phagocytosis of EGFR/HER2 human tumor cell line panel; assay type: cell-based; settings: variety of human tumor cell lines
[4] = system: human donor red blood cells (RBCs); assay: In vitro hemolysis assay, human erythrocytes; assay type: cell-based
Experimental: FIG. 22B is a graph showing RBCs and test agents that were incubated at 37° C. for 24 hours and then the media was assessed at OD490 for changes in absorbance due to hemoglobin being released from lysing RBCs. […] FIG. 22D are graphs showing that peripheral blood was isolated from mice receiving three IP doses (300 μg) of the murine SIRPα-Fc-CD40L surrogate (arrows). Cell populations were assessed by flow cytometry and included CD20+ B cells, CD110+, CD4+/CD11c+, and CD8+/CD11c+ dendritic cells.
as §1

[5] = Repeat-dose safety and activity study in cynomolgus macaques; assay type: in vivo
Experimental: FIG. 21A-D is a graph showing cynomolgus macaques that were treated with vehicle, or 0.1, 1, 10, and 40 mg/kg of SIRPα-Fc-CD40L. Blood chemistry analysis assessed peripheral erythrocyte counts (FIG. 21A), hemoglobin levels (FIG. 21C), and hematocrit (FIG. 21B). In addition, the fold-change in lymphocyte count from pre-dose to 24 hours post-dose is shown (FIG. 21D).
The experiments of this example tested the safety and activity of the human SIRPα-Fc-CD40L chimeric protein following repeat doses in cynomolgus macaques. Briefly, naïve cynomolgus macaques were administered the human SIRPα-Fc-CD40L chimeric protein by intravenous infusion every week, for five consecutive weeks, at doses of 0.1, 1, 10 and 40 mg/kg. Standard hematology and clinical chemistry parameters were collected before and after each dose.
Receptor occupancy was evaluated on circulating CD40+ lymphocytes.

In the case of “SIRPα-Fc-CD40L: Generic name of the SIRPα ECD-Fc-CD40L ECD chimeric protein; human or murine version depending on the test system”, the “type I interferon response, interferon gene-driven luciferase activity” value (RAW264.7-ISG cells) is reported as “stimulates an increase in interferon gene-driven luciferase activity”, the phagocytic activity [1] is reported as “no phagocytic activity” and the “binding to parental CHOK1 cells” value (parental CHOK1 cells) is reported as “not to parental CHOK1 cells”. The hemolysis in vitro [2] was “did not reveal evidence of hemolysis”, the “macrophage phagocytosis of tumor cells” value [3] was “stimulated macrophage phagocytosis of tumor cells” and the hemolysis in vitro [4] was “did not reveal evidence of hemolysis”. For the same substance, the “number of CD40+ cells in the peripheral blood” value ([5]; 0.1, 1, 10 and 40 mg/kg) was “dose-dependent decrease in the number of CD40+ cells in the peripheral blood”, the hematology parameters ([5]; declines also noted in the vehicle control group) was “Mild declines in hematology parameters” and the “total number of lymphocytes before and after each dose” value ([5]; episodic fluctuation) was “did not depart from the upper and lower range of normal”. For the same substance, the “serum cytokines (CCL2, CXCL9, CXCL10, IL-6, IL-15, IL-17A, IL-23)” value ([5]; following each infusion) was “dose-dependent increases in multiple serum cytokines”.
